14 compounds from patent US11708351B2 (Achillion Pharmaceuticals, Inc., priority 2017, dated 2023) can be followed below.

Where only a bound is given, the exact number is not on record here.

Usually IC50 stands for the point on the concentration scale where inhibition reaches its midpoint.

The target in one assay is Human Factor D (Homo sapiens (Human), UniProt P00746). As to the kind of experiment: Human Factor D Assay. It is filed as biochemical. Particulars: Factor D inhibition, assay of Example 10; read-out: IC50 (Stars). How it is done: Human Factor D (purified from human serum, Complement Technology, Inc.) at 80 nM final concentration is incubated with test compound at various concentrations for 5 min at room temperature in 50 mM Tris, 1M NaCl, pH 7.5. A synthetic substrate Z-L-Lys-SBzl and DTNB (Ellman's reagent) are added to final concentrations of 100 μM each. Absorbance at 405 nm (A405) is recorded at 30 second intervals for 30 min using a microplate spectrophotometer. IC50 values are calculated by nonlinear regression of complement Factor D reaction rates as a function of test compound concentration.
Chain of Human Factor D (P00746 26-253): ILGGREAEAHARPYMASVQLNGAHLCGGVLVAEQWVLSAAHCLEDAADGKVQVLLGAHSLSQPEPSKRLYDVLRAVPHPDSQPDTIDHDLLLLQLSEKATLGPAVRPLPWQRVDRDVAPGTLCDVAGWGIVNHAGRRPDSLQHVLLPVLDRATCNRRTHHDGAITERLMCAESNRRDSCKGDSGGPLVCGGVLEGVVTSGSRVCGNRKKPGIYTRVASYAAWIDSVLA
On to `CC(=O)c1nn(CC(=O)N2[C@H](C(=O)Nc3nc(Br)c(F)cc3C)C[C@@]3(CN(CCO)CCO)C[C@@H]23)c2cnc(-c3cnc(C)nc3)cc12` [Compound 248, (1R,3S,5R)-2-(2-(3-acetyl-5-(2-methylpyrimidin-5-yl)-1H-pyrazolo[3,4-c]pyridin-1-yl)acetyl)-5-((bis(2-hydroxy-ethyl)amino)methyl)-N-(6-bromo-5-fluoro-3-methylpyridin-2-yl)-2-azabicyclo[3.1.0]hexane-3-carboxamide], for which the IC50 was under 1000 nM.
Still for that read-out and setting: the result for `CC(=O)c1nn(CC(=O)N2[C@H](C(=O)Nc3nc(Br)c(F)cc3C)C[C@@]3(CC#N)C[C@@H]23)c2cnc(-c3cnc(C)nc3)cc12` [Compound 249, (1R,3S,5R)-2-(2-(3-acetyl-5-(2-methylpyrimidin-5-yl)-1H-pyrazolo[3,4-c]pyridin-1-yl)acetyl)-N-(6-bromo-5-fluoro-3-methylpyridin-2-yl)-5-(cyanomethyl)-2-azabicyclo[3.1.0]hexane-3-carboxamide] reads under 1000 nM; that for `COCc1ncc(-c2ccc3c(c2)c(C(C)=O)nn3CC(=O)N2[C@H](C(=O)Nc3nc(Br)ccc3C)C[C@@]3(C)C[C@@H]23)cn1` [Compound 278, (1R,3S,5R)-2-(2-(3-acetyl-5-(2-(methoxymethyl)py-rimidin-5-yl)-1H-indazol-1-yl)acetyl)-N-(6-bromo-3-methylpyridin-2-yl)-5-methyl-2-azabicyclo[3.1.0]hexane-3-carboxamide], under 1000 nM.
Same read-out and setting: the result for `CC(=O)c1nn(CC(=O)N2[C@H](C(=O)Nc3nc(Br)ccc3COCCF)C[C@@]3(C)C[C@@H]23)c2ccc(-c3cnc(C)nc3)cc12` [Compound 301, (1R,3S,5R)-2-(2-(3-acetyl-5-(2-methylpyrimidin-5-yl)-1H-indazol-1-yl)acetyl)-N-(6-bromo-3-((2-fluoro-ethoxy)methyl)pyridin-2-yl)-5-methyl-2-azabicyclo[3.1.0]hexane-3-carboxamide] reads under 1000 nM.
Same read-out and setting: to `CC(=O)c1nn(CC(=O)N2[C@H](C(=O)Nc3nc(Br)ccc3C)C[C@@]3(C)C[C@@H]23)c2cnc(-c3cnc(C)cn3)cc12` [Compound 303] belongs under 1000 nM.
As to `CC(=O)c1nn(CC(=O)N(C(=O)[C@@H]2C[C@@]3(C)C[C@H]3N2)c2cccc(Br)n2)c2cnc(-c3cnc(C)nc3)cc12` [Compound 334, (1R,3S,5R)-2-(2-(3-acetyl-5-(2-methylpyrimidin-5-yl)-1H-pyrazolo[3,4-c]pyridin-1-yl)acetyl)-N-(6-bromopyridin-2-yl)-5-methyl-2-azabicyclo[3.1.0]hexane-3-carboxamide], the half-maximal inhibitory concentration (IC50) was under 1000 nM.

Still in this assay, the particulars now being: Table 6; Factor D 80 nM, substrate Z-L-Lys-SBzl; read-out: IC50.
For the compound `CC(=O)c1nn(CC(=O)N2C[C@H]3C[C@H]3[C@H]2C(=O)N2C[C@H]3C[C@H]3[C@H]2C(=O)Nc2nc(Br)ccc2C)c2c(C)cc(-c3cnc(C)nc3)cc12` [Compound 92, (1R,2S,5S)-3-((1R,2S,5S)-3-(2-(3-acetyl-7-methyl-5-(2-methylpyrimidin-5-yl)-1H-indazol-1-yl)acetyl)-3-azabicyclo[3.1.0]hexane-2-carbonyl)-N-(6-bromo-3-methylpyridin-2-yl)-3-azabicyclo[3.1.0] hexane-2-carboxamide], the concentration for half-maximal inhibition (IC50) lay within 1000 to 10000 nM.
Same read-out and setting: to `CC(=O)c1nn(CC(=O)N2[C@H](C(=O)O)C[C@@]3(C)C[C@@H]23)c2c(C)cc(-c3cnc(C)nc3)cc12` [Compound 126, (1R,3S,5R)-2-(2-(3-acetyl-7-methyl-5-(2-methylpyrimidin-5-yl)-1H-indazol-1-yl)acetyl)-5-methyl-2-azabicyclo[3.1.0] hexane-3-carboxylic acid] belongs over 10000 nM.
The same measure, in the same setting: the result for `CC(=O)c1nn(CC(=O)N2[C@H](C(=O)Nc3nc(Br)ccc3C)C[C@@]3(C)C[C@@H]23)c2c(CN(C)C)cc(-c3cnc(C)nc3)cc12` [Compound 167, (1R,3S,5R)-2-(2-(3-Acetyl-7-((dimethylamino)methyl)-5-(2-methylpyrimidin-5-yl)-1H-indazol-1-yl)acetyl)-N-(6-bromo-3-methylpyridin-2-yl)-5-methyl-2-azabicyclo[3.1.0]hexane-3-carboxamide] reads under 1000 nM; that for `CC(=O)c1c2cc(-c3cnc(C)nc3)cc(C(F)(F)F)c2nn1CC(=O)N1[C@H](C(=O)Nc2nc(Br)ccc2C)C[C@@]2(C)C[C@@H]12` [Compound 217, (1R,3S,5R)-2-(2-(3-acetyl-5-(2-methylpyrimidin-5-yl)-7-(trifluoromethyl)-2H-indazol-2-yl)acetyl)-N-(6-bromo-3-methylpyridin-2-yl)-5-methyl-2-azabicyclo[3.1.0] hexane-3-carboxamide], over 10000 nM.
On to “(3S)-5-(3-Azabicyclo[3.1.1]heptan-3-ylmethyl)-2-(2-(3-acetyl-5-(2-methylpyrimidin-5-yl)-1H-indazol-1-yl)acetyl)-N-(6-bromo-3-methylpyridin-2-yl)-2-azabicyclo[3.1.0]hexane-3-carboxamide [Compound 13]”, for which the IC50 is under 1000 nM.

Still in this assay, the particulars now being: Table 7; Factor D inhibition, assay of Example 10; read-out: IC50 (Stars).
Take `CC(=O)c1nn(CC(=O)N2[C@H](C(=O)Nc3cc(-c4ccccc4O)cc(Br)n3)C[C@@]3(C)C[C@@H]23)c2ccc(-c3cnc(C)nc3)cc12` [Compound 556, (1R,3S,5R)-2-(2-(3-acetyl-5-(2-methylpyrimidin-5-yl)-1H-indazol-1-yl)acetyl)-N-(6-bromo-4-(2-hydroxyphenyl)pyridin-2-yl)-5-methyl-2-azabicyclo[3.1.0]hexane-3-carboxamide]: the IC50 is under 1000 nM.

The same assay, now with this note: Table 8; Factor D 80 nM, substrate Z-L-Lys-SBzl; read-out: IC50.
As for `CC(=O)c1nn(CC(=O)N2[C@H](C(=O)Nc3nc(Br)ccc3C)C[C@@]3(CNC(=O)COCCOCCNC(=O)COCCOCCNC(=O)CC[C@H](NC(=O)CCCCCCCCCCCCCCCCC(=O)O)C(=O)O)C[C@@H]23)c2ccc(-c3cnc(C)nc3)cc12` [Compound 379, (S)-1-((1R,3S,5R)-2-(2-(3-acetyl-5-(2-methylpyrimidin-5-yl)-1H-indazol-1-yl)acetyl)-3-((6-bromo-3-methylpyridin-2-yl)carbamoyl)-2-azabicyclo[3.1.0]hexan-5-yl)-24-carboxy-3,12,21,26-tetraoxo-5,8,14,17-tetraoxa-2,11,20,25-tetraazatritetracontan-43-oic acid], the 50% inhibitory concentration (IC50) was under 1000 nM.
On the same count and under the same terms, the result for `COC(=O)CCCCCCCCCCCCCCCCC(=O)N[C@@H](CCC(=O)NCCOCCOCC(=O)NCCOCCOCC(=O)NCc1ncc(-c2cc(C)c3c(c2)c(C(C)=O)nn3CC(=O)N2[C@H](C(=O)Nc3nc(Br)ccc3C)C[C@@]3(C)C[C@@H]23)cn1)C(=O)OC` [Compound 403, (S)-methyl 1-(5-(3-acetyl-1-(2-((1R,3S,5R)-3-((6-bromo-3-methylpyridin-2-yl)carbamoyl)-5-methyl-2-azabicyclo[3.1.0]hexan-2-yl)-2-oxoethyl)-7-methyl-1H-indazol-5-yl)pyrimidin-2-yl)-24-(methoxycarbonyl)-3,12,21,26-tetraoxo-5,8,14,17-tetraoxa-2,11,20,25-tetraazatritetracontan-43-oate] reads under 1000 nM.
